Experimental findings from publication PMC11541474, “Toward New Therapeutics for Visceral Leishmaniasis: Efficacy and Mechanism of Action of Amides Inspired by Gibbilimbol B” (ACS Omega, 2024) are described below.

Structures are written as SMILES.

Series [1] can be described thus: in vitro mammalian toxicity against NCTC cells. Format: cell-based. The settings on record: 50% cytotoxic concentration, read-out: Cc50 Nctc (μm) ± SD. On the procedure:
Evaluation of in vitro mammalian toxicity against NCTC cells was performed as previously described.[40] The selectivity index was determined using the following equation: CC50 against NCTC cells/EC50 against amastigotes.[44] The CC50 and EC50 values were calculated using sigmoidal dose–response curves using Graph Pad Prism 5.0 software. One-way ANOVA testing with Tukey’s multiple comparison tests were used for evaluation of the statistical significance (p-value) of differences between the samples, which were tested in duplicate and all assays were repeated at least twice.

For series [2], the system named is L. (L.) infantum promastigotes. Put plainly: acidocalcisome alterations, acridine orange. Format: cell-based, Leishmania (L.) infantum. To be noted: 9 at 141.5 μM (20 min), 10 at 110.1 μM (significant from 60 min onward). An excerpt:
Acidocalcisomes are intracellular organelles that are characterized by acidity and high calcium concentrations due to the proton and calcium pumps.[33] In trypanosomatids, these organelles are rich in short-chain polyphosphates and occupy a small proportion (1 to 2%) of each cell’s volume.[34] In these parasites, the acidocalcisomes are responsible for capturing and storing calcium in large quantities, which is essential for cellular functioning.[35] In our study, we investigated possible changes resulting from treatment with compounds in acidocalcisomes, especially concerning intracellular calcium. Acridine orange was used as a fluorescent probe to evaluate changes in the acidocalcisomes of L. (L.) infantum promastigotes. Alkalinization of these organelles results in the release of the probe, altering the fluorescence.[36] […] These effects were compared with those of the positive (nigericin) and negative (untreated parasites) controls. Figure 8 Acidocalcisome alkalization in L. (L.) infantum treated with compounds 9 (141.5 μM - A) or 10 (110.1 μM - B). […] Fluorescence is represented as a percentage of the fluorescence in the positive control with nigericin at 20 min (100%). ***p = 0.003, **p = 0.0021, **p = 0.05. […] The fluorescence was measured in a spectrofluorimeter with excitation an emission at […], respectively. […]

In series [3] the test system is L. (L.) infantum intracellular amastigotes. Put plainly: ex-vivo assay using intracellular amastigotes of L. (L.) infantum. Format: cell-based, Leishmania (L.) infantum. The settings on record: for S.I. amastigote (selectivity index): CC50 against NCTC cells/EC50 against amastigotes; for EC50: Leishmania infantum, L. (L.) infantum intracellular amastigotes, read-out: Ec50 Amastigote (μm) ± SD. On the procedure:
(§1) Evaluation of in vitro activity against promastigote and amastigote forms of L. (L.) infantum was performed as previously reported assays.[40]−[43] The CC50 and EC50 values were calculated using sigmoidal dose–response curves using Graph Pad Prism 5.0 software. One-way ANOVA testing with Tukey’s multiple comparison tests were used for evaluation of the statistical significance (p-value) of differences between the samples, which were tested in duplicate and all assays were repeated at least twice.

The test system of series [4] is L. (L.) infantum promastigotes. Nature of the series: intracellular Ca2+ levels, Fura-2 AM. The settings on record: 9 at 141.5 μM, 10 at 110.1 μM. Type of series: cell-based, Leishmania (L.) infantum. An excerpt:
Compounds that affect intracellular Ca^2+ balance in Leishmania may cause changes in the mechanism of transport of these ions in trypanosomatids.[26] In Leishmania spp., Ca^2+ regulation involves the endoplasmic reticulum, the mitochondria, and the acidocalcisomes;[27],[28] increases in this intracellular ion can trigger processes such as apoptosis that led to the death of the parasite.[29] The Fura-2 AM marker was used to measure intracellular Ca^2+ levels in Leishmania (L.) infantum promastigotes. Fura-2 has a high affinity for Ca^2+, which results in the formation of fluorescent intracellular complexes that are proportional to intracellular Ca^2+ levels.[30] […] (Triton X-100) at all monitored times. […] Compound 10 induced similar levels of fluorescence to those induced by compound 9 but at a slower rate, as these levels were observed after 200 min of incubation.  Figure 7 Intracellular Ca^2+ levels in L. (L.) infantum treated with (A) compound 9 (141.5 μM) or (B) compound 10 (110.1 μM). Results were obtained using the Fluo-4 AM dye (excitation and emission at 485 and 535 nm, respectively). Untreated and treated with Triton X-100 (0.5% v/v) parasites were used as negative and positive controls, respectively. Fluorescence is represented as a percentage relative to the untreated control at 0 min (100%).***p < 0.0001. Measurements of intracellular Ca^2+ levels were conducted as previously reported.[49] Briefly, promastigotes were pretreated with Fura-2 AM (Molecular Probes) in PBS, washed and treated with compounds 9 (141.5 μM) or 10 (110.1 μM). Fluorescence was measured using a microplate reader (FilterMax […]-Mode, Molecular Devices) with excitation and emission at 360 and 500 nm, respectively. Untreated and treated parasites (0.5% Triton X-100) were used as negative and positive controls, respectively.

Series [5] concerns L. (L.) infantum promastigotes. Nature of the series: in vitro activity against promastigote forms of L. (L.) infantum. Format: cell-based, Leishmania (L.) infantum. The settings on record: Leishmania infantum; L. (L.) infantum promastigotes; read-out: Ec50 Promastigote (μm) ± SD. As for the experimental part:
as §1

Series [6] relates to L. (L.) infantum promastigotes. Type of series: cell-based, Leishmania (L.) infantum. An excerpt:
Changes in the plasma membrane integrity of Leishmania spp. can lead to cell death due to pore formation, pH imbalance, and nutrient-transport failure. Initially, the fluorescent probe Sytox Green was employed to analyze the permeability of the plasma membrane. […] Untreated parasites were used as a negative control for normalization (0% permeabilization) whereas the nonionic surfactant Triton X-100 was used for as positive control (100% permeabilization).
Figure 4 Plasma membrane permeability in L. (L.) infantum promastigotes after 4 h of treatment with compound (A) 9 (141.5 μM) or (B) 10 (110.1 μM), using the fluorescent probe Sytox Green (p < 0.0001). Negative control: untreated parasites; positive control: Triton X-100 (TX-100).
Assays for determination of plasma membrane integrity of L. (L.) infantum were conducted as previously reported.[46] Briefly, compounds 9 (141.5 μM) and 10 (110.1 μM) were added to different wells and the resulting fluorescence was measured using a fluorimetric microplate reader (FilterMax F5Multi-Mode, Molecular Devices). Triton X-100 (0.5%, v/v) and untreated parasites were used as positive negative controls, respectively.[47]

For `CCCCC(CC)CNC(=O)c1ccc(Cl)cc1` (stereo not shown) [Compound 9, N-(2-Ethylhexyl)-4-chlorobenzamide], the CC50 in series [1] was over 200 µM. Besides, the “effect on acidocalcisomes (acridine orange fluorescence)” value in series [2] is recorded as “alkalinization of the acidocalcisomes”. For the same compound, in series [3], the “S.I. amastigote (selectivity index)” value is reported as over 15.7 and the EC50 was determined as 12.7 ± 4.9 µM. Besides, in series [4], the “incubation time at which Ca^2+ levels approached those of the positive control (Triton X-100)” value is given as at most 20 min and the “intracellular Ca^2+ concentration compared with untreated parasites” value is “increased the intracellular Ca^2+ concentration”. The EC50 in series [5] was 41.9 ± 2.1 µM. Further, the “permeabilization of the plasma membrane (Sytox Green)” value in series [6] was “did not induce permeabilization of the membrane”.
Regarding `CCCCC(CC)CNC(=O)c1ccc([N+](=O)[O-])cc1` (stereo not shown) [Compound 10, N-(2-Ethylhexyl)-4-nitrobenzamide], the CC50 in series [1] is over 200 µM. Also, in series [2], the “effect on acidocalcisomes (acridine orange fluorescence)” value is “progressive and continuous acidification of these organelles”. Also, in series [3], the “S.I. amastigote (selectivity index)” value is over 16.4 and the EC50 came out at 12.2 ± 7.2 µM. In series [4], the “incubation time at which Ca^2+ levels approached those of the positive control (Triton X-100)” value worked out at 200 min and the “intracellular Ca^2+ concentration compared with untreated parasites” value is listed as “increased the intracellular Ca^2+ concentration”. In series [5], the EC50 stood at 44.3 ± 0.4 µM. Further, the “permeabilization of the plasma membrane (Sytox Green)” value in series [6] is given as “did not induce permeabilization of the membrane”.

In general, CC50 refers to the concentration giving 50% cytotoxicity. Usually EC50 stands for the concentration that produces a half-maximal response.
